Experimental data: patent US9642839B2, “Substance having tyrosine kinase inhibitory activity and preparation method and use thereof” (Institute of Radiation Medicine, China Academy of Military …, priority 2013, dated 2017)

Columns and labels:
[1] = system: non-small cell lung cancer (NSCLC); details: 250 mg/day tablet, NSCLC patients with previous chemotherapy, 159 subjects; cited from earlier work
[2] = system: protein tyrosine kinase (PTK); experiment: PTK activity assay with mouse brain tissue extract (ELISA, OD 492 nm); format: biochemical; details: at 400 μM
Experimental: Tyrosine kinase buffer: 10 mL 1M HEPES (pH 7.5), 0.4 mL 5% BSA/PBS, 0.2 mL 0.1M Na3VO4, and 1 mL 5M NaCl were added to 88.4 mL double distilled water (DDW) (HEPES: Amresco; Na3VO4: Sigma).
Extraction of tissue extract PTK: mouse brain tissue was quickly removed and weighed, followed by addition of five-fold volumes of pre-cooled homogenization buffer for homogenization. After centrifugation at 4° C., 1,000 g for 10 min, nuclei and cell debris were removed. The supernatant S1 was collected and centrifuged at 4° C., 10,000 g for 20 min, and then the supernatant S2 was collected. The precipitate P2, which represents the crude membrane protein fraction, was retained. S2 included cytoplasmic protein, and was used for testing protein tyrosine kinase (PTK) activity. In the detection of the membrane protein fraction, two-fold volumes of lysis buffer was added to P2, and the resultant was placed on ice for 10 min and centrifuged at 4° C., 10,000 g for 10 min. The supernatant S3, which represents the crude membrane protein including soluble membrane protein, was collected for testing PTK activity. Protein content in cytoplasm or membrane protein was detected by using BCA protein concentration kit (purchased from Beyotime Institute of Biotechnology). The tissue extract was stored at −70° C.
Coating of 96-well plate: PTK substrate was dissolved and added in an amount of 100 μl to each well. The plate was covered with its lid, and incubated at 4° C. overnight (10-12 hours). Then it was washed with 200 μl elution buffer once, and dried at 37° C. for 2 h. After that, it was washed with 10 mM PBS once, dried at room temperature, and then stored at 4° C. for further use.
Groups: blank control: 80 μl 1× tyrosine kinase buffer containing ATP+20 μl 1× tyrosine kinase buffer; negative control: 80 μl 1× tyrosine kinase buffer containing ATP+10 μl 1× tyrosine kinase buffer+7 μl tissue extract+3 μl 1× tyrosine kinase buffer; positive control: 80 μl 1× tyrosine kinase buffer containing ATP+10 μl Gefitinib+7 μl tissue extract+3 μl 1× tyrosine kinase buffer (first, the positive drug was allowed to interact with the tyrosine kinase tissue extract at room temperature for 10 min, and meanwhile the tissue extract for the negative control group was also placed at room temperature for 10 min, and then 80 μl 1× tyrosine kinase buffer containing ATP was added to respective groups); vehicle control: 80 μl 1× tyrosine kinase buffer containing ATP+10 μl DMSO+7 μl tissue extract+3 μl 1× tyrosine kinase buffer; drugs to be screened: 80 μl 1× tyrosine kinase buffer containing ATP+10 μl drug to be tested +7 μl tissue extract+3 μl 1× tyrosine kinase buffer.
PTK activity assay: 1× tyrosine kinase buffer was prepared by evenly mixing 1 mL (10×) tyrosine kinase buffer with 9 mL DDW. The tissue extract was diluted with 1× tyrosine kinase buffer appropriately, mixed with it gently and evenly, and placed on ice. ATP stock solution was dissolved by evenly mixing 48 μl ATP stock solution with 1 mL 1× tyrosine kinase buffer, and placed on ice. The microplate reader was added in respective wells with the groups formulated as above, covered with the lid, and incubated at room temperature for 30 min. The microplate reader was washed with 200 μl elution buffer and tapped until the residual buffer was removed, and this procedure was repeated for five times. To each well, 100 μl antibody diluent (antibody elution buffer diluted at a ratio of 1:2000) was added. The reader was covered with the lid, and incubated at room temperature for 30 min. OPD solution was prepared by addition of 4 mg OPD into a mixture of 4.86 mL 0.1 mol/L citric acid solution and 5.14 mL 0.2 mol/L Na2HPO4 solution, followed by addition of 50 μl 30% H2O2 to allow for complete dissolution, and then was protected from light. The antibody solution was removed. The reader was washed with 200 μl elution buffer and tapped until the residual buffer was removed, and this procedure was repeated for five times.

HLE cells = experiment: In vitro antitumor activity, MTS cell proliferation; format: cell-based; details: hepatocellular cancer, 72 hours
Experimental: (§1) Method: 14 cell lines (MKN-45 cells, MHCC97-L cells, MHCC97-H cells, HLE cells, HepG2 cells, 7721 cells, L02 cells, A375 cells, H460 cells, A549 cells, SK-N-SH cells, MCF-7 cells, K562 cells, and Ba/F3-Tpr-Met cells (pre-B cells which are malignantly transformed by the c-Met constitutive active mutant Tpr-Met) were seeded into 96-well plate at 1×10^4 cells/well, and each well was added with 150 μl DMEM medium (purchased from Invitrogen) containing 10% fetal bovine serum (purchased from Hyclone). When cell adherent was observed, different concentrations of 2-indolone derivatives (concentrations at 0.1-10 μM) were added, in addition to the negative control (vehicle control group) and blank control (medium group). After culture at 37° C., 5% CO2 for 72 hours, MTS reagent (Promega Corporation) were added for further culture for 2-4 h.

H460 cells = experiment: as above; format: cell-based; details: H460, lung cancer, 72 hours
Experimental: as §1

A375 cells = experiment: as above; format: cell-based; details: A375, skin cancer, 72 hours
Experimental: as §1

MKN-45 cells = experiment: as above; format: cell-based; details: MKN-45, gastric cancer, 72 hours
Experimental: as §1

MHCC97-L cells = experiment: as above; format: cell-based; details: hepatocellular cancer, 72 hours
Experimental: as §1

SK-N-SH cells = experiment: as above; format: cell-based; details: neuroblastoma, 72 hours
Experimental: as §1

HepG2 cells = experiment: as above; format: cell-based; details: HepG2, hepatocellular cancer, 72 hours
Experimental: as §1

Ba/F3-Tpr-Met cells = experiment: as above; format: cell-based; details: pre-B cell, 72 hours
Experimental: as §1

MCF-7 cells = experiment: as above; format: cell-based; details: MCF-7, breast cancer, 72 hours
Experimental: as §1

K562 cells = experiment: as above; format: cell-based; details: K562, leukemia, 72 hours
Experimental: as §1

L02 cells = experiment: MTS cell proliferation, normal liver cells; format: cell-based; details: L02, normal hepatic cells, 72 hours
Experimental: […] After culture at 37° C., 5% CO2 for 72 hours, MTS reagent (Promega Corporation) were added for further culture for 2-4 h.

MHCC97-H cells = experiment: In vitro antitumor activity, MTS cell proliferation; format: cell-based, human; details: hepatocellular cancer, 72 hours
Experimental: as §1

A549 cells = experiment: as above; format: cell-based, human; details: A549, lung cancer, 72 hours
Experimental: as §1

COc1cc2ncnc(Nc3ccc(F)c(Cl)c3)c2cc1OCCCN1CCOCC1 [Gefitinib]
Objective response rate [1]: 27.0%

O=C1Nc2ccc(S(=O)(=O)Nc3ccc4ccccc4c3)cc2C1=Cc1nc2ccccc2[nH]1 [Indo 1, 3-(1H-benzimidazol-2-methylene)-5-(β-naphthylaminosulfo)-2-indolone]
Inhibition rate on tyrosine kinase [2]: 51.2%
IC50 (HLE cells): 6.31 µM
IC50 (H460 cells): 1.54 µM
IC50 (A375 cells): 3.18 µM
IC50 (MKN-45 cells): 1.97 µM
IC50 (MHCC97-L cells): 1.54 µM
IC50 (SK-N-SH cells): 1.35 µM
IC50 (HepG2 cells): 6.47 µM
IC50 (Ba/F3-Tpr-Met cells): 5.31 µM
IC50 (MCF-7 cells): 1.72 µM
IC50 (K562 cells): 3.02 µM
IC50 (L02 cells): 24.8 µM
IC50 (MHCC97-H cells): 1.38 µM
IC50 (A549 cells): 2.89 µM

O=C1Nc2ccc(S(=O)(=O)Nc3ccc(F)c(Cl)c3)cc2C1=Cc1nc2ccccc2[nH]1 [Indo 2, 3-(1H-benzimidazol-2-methylene)-5-(3-chloro-4-fluorophenylaminosulfo)-2-indolone]
Inhibition rate on tyrosine kinase [2]: 45.2%
IC50 (HLE cells): 6.79 µM
IC50 (H460 cells): 1.78 µM
IC50 (A375 cells): 2.48 µM
IC50 (MKN-45 cells): 2.13 µM
IC50 (MHCC97-L cells): 1.87 µM
IC50 (SK-N-SH cells): 1.79 µM
IC50 (HepG2 cells): 6.98 µM
IC50 (Ba/F3-Tpr-Met cells): 5.93 µM
IC50 (MCF-7 cells): 1.95 µM
IC50 (K562 cells): 3.27 µM
IC50 (L02 cells): 23.7 µM
IC50 (MHCC97-H cells): 1.67 µM
IC50 (A549 cells): 3.16 µM

CN(c1ccccc1)S(=O)(=O)c1ccc2c(c1)C(=Cc1nc3ccccc3[nH]1)C(=O)N2 [Indo 3, 3-(1H-benzimidazol-2-methylene)-5-(N-methylphenylaminosulfo)-2-indolone]
Inhibition rate on tyrosine kinase [2]: 55.9%
IC50 (HLE cells): 4.72 µM
IC50 (H460 cells): 1.05 µM
IC50 (A375 cells): 1.47 µM
IC50 (MKN-45 cells): 1.29 µM
IC50 (MHCC97-L cells): 1.11 µM
IC50 (SK-N-SH cells): 0.85 µM
IC50 (HepG2 cells): 4.79 µM
IC50 (Ba/F3-Tpr-Met cells): 3.87 µM
IC50 (MCF-7 cells): 0.96 µM
IC50 (K562 cells): 2.07 µM
IC50 (L02 cells): 22.2 µM
IC50 (MHCC97-H cells): 0.82 µM
IC50 (A549 cells): 1.54 µM

O=C1Nc2ccc(S(=O)(=O)NC3CCCCC3)cc2C1=Cc1nc2ccccc2[nH]1 [Indo 4, 3-(1H-benzimidazol-2-methylene)-5-(cyclohexylaminosulfo)-2-indolone]
Inhibition rate on tyrosine kinase [2]: 60.7%
IC50 (HLE cells): 3.58 µM
IC50 (H460 cells): 0.78 µM
IC50 (A375 cells): 0.97 µM
IC50 (MKN-45 cells): 0.94 µM
IC50 (MHCC97-L cells): 0.64 µM
IC50 (SK-N-SH cells): 0.54 µM
IC50 (HepG2 cells): 3.69 µM
IC50 (Ba/F3-Tpr-Met cells): 2.54 µM
IC50 (MCF-7 cells): 1.46 µM
IC50 (K562 cells): 1.34 µM
IC50 (L02 cells): 26.8 µM
IC50 (MHCC97-H cells): 0.54 µM
IC50 (A549 cells): 2.32 µM

O=C1Nc2ccc(S(=O)(=O)Nc3ccc(Cl)cc3)cc2C1=Cc1nc2ccccc2[nH]1 [Indo 6, 3-(1H-benzimidazol-2-methylene)-5-(4-chlorophenylaminosulfo)-2-indolone]
Inhibition rate on tyrosine kinase [2]: 55.0%
IC50 (HLE cells): 4.87 µM
IC50 (H460 cells): 0.94 µM
IC50 (A375 cells): 1.65 µM
IC50 (MKN-45 cells): 1.38 µM
IC50 (MHCC97-L cells): 1.06 µM
IC50 (SK-N-SH cells): 1.06 µM
IC50 (HepG2 cells): 5.18 µM
IC50 (Ba/F3-Tpr-Met cells): 4.21 µM
IC50 (MCF-7 cells): 1.12 µM
IC50 (K562 cells): 2.21 µM
IC50 (L02 cells): 22.7 µM
IC50 (MHCC97-H cells): 0.91 µM
IC50 (A549 cells): 1.99 µM

O=C1Nc2ccc(S(=O)(=O)Nc3ccc(CCO)cc3)cc2C1=Cc1nc2ccccc2[nH]1 [Indo 7, 3-(1H-benzimidazol-2-methylene)-5-(4-hydroxyethylphenylaminosulfo)-2-indolone]
Inhibition rate on tyrosine kinase [2]: 58.2%
IC50 (HLE cells): 4.36 µM
IC50 (H460 cells): 0.92 µM
IC50 (A375 cells): 1.22 µM
IC50 (MKN-45 cells): 1.13 µM
IC50 (MHCC97-L cells): 0.97 µM
IC50 (SK-N-SH cells): 0.67 µM
IC50 (HepG2 cells): 4.25 µM
IC50 (Ba/F3-Tpr-Met cells): 3.11 µM
IC50 (MCF-7 cells): 0.83 µM
IC50 (K562 cells): 1.67 µM
IC50 (L02 cells): 25.7 µM
IC50 (MHCC97-H cells): 0.69 µM
IC50 (A549 cells): 1.28 µM

Cc1ccc(NS(=O)(=O)c2ccc3c(c2)C(=Cc2nc4ccccc4[nH]2)C(=O)N3)cc1 [Indo 8, 3-(1H-benzimidazol-2-methylene)-5-(4-methylphenylaminosulfo)-2-indolone]
Inhibition rate on tyrosine kinase [2]: 49.9%
IC50 (HLE cells): 6.58 µM
IC50 (H460 cells): 1.63 µM
IC50 (A375 cells): 2.35 µM
IC50 (MKN-45 cells): 2.02 µM
IC50 (MHCC97-L cells): 1.68 µM
IC50 (SK-N-SH cells): 1.57 µM
IC50 (HepG2 cells): 6.74 µM
IC50 (Ba/F3-Tpr-Met cells): 5.68 µM
IC50 (MCF-7 cells): 1.81 µM
IC50 (K562 cells): 3.11 µM
IC50 (L02 cells): 25.3 µM
IC50 (MHCC97-H cells): 1.53 µM
IC50 (A549 cells): 3.02 µM

CCOc1ccc(NS(=O)(=O)c2ccc3c(c2)C(=Cc2nc4ccccc4[nH]2)C(=O)N3)cc1 [Indo 9, 3-(1H-benzimidazol-2-methylene)-5-(4-ethoxyphenylaminosulfo)-2-indolone]
Inhibition rate on tyrosine kinase [2]: 51.3%
IC50 (HLE cells): 5.91 µM
IC50 (H460 cells): 1.25 µM
IC50 (A375 cells): 2.12 µM
IC50 (MKN-45 cells): 1.72 µM
IC50 (MHCC97-L cells): 1.31 µM
IC50 (SK-N-SH cells): 1.22 µM
IC50 (HepG2 cells): 5.98 µM
IC50 (Ba/F3-Tpr-Met cells): 4.91 µM
IC50 (MCF-7 cells): 1.35 µM
IC50 (K562 cells): 2.64 µM
IC50 (L02 cells): 23.2 µM
IC50 (MHCC97-H cells): 1.17 µM
IC50 (A549 cells): 2.52 µM
